Measured values published in the CheMixHub viscosity set.

Assay: xn = mol fraction of the nth substance listed

FB(F)F + CCOc1ccccc1
viscosity [mPa·s], 101 kPa
Settings | 293.15 K | 298.15 K | 303.15 K
x1 = 0.00901 | 1.29 | 1.18 | 1.08
x1 = 0.1455 | 1.53 | 1.39 | 1.27
x1 = 0.2874 | 2.42 | 2.17 | 1.96
x1 = 0.3269 | 2.79 | 2.51 | 2.25
x1 = 0.3742 | 3.38 | 3.01 | 2.68
x1 = 0.3817 | 3.48 | 3.1 | 2.74
x1 = 0.4143 | 4 | 3.52 | 3.08
x1 = 0.4429 | 4.57 | 3.97 | 3.5
x1 = 0.456 | 4.87 | 4.24 | 3.7
x1 = 0.4744 | 5.39 | 4.69 | 4.06
x1 = 0.4962 | 6.02 | 5.19 | 4.48

OCC(F)(F)F + CCO
viscosity [mPa·s]
Settings | 298.15 K | 303.15 K | 308.15 K | 313.15 K | 318.15 K | 323.15 K
100 kPa, x1 = 0.1081 | 1.09 | 1 | 0.92 | 0.84 | 0.77 | 0.71
100 kPa, x1 = 0.2039 | 1.09 | 0.99 | 0.91 | 0.83 | 0.76 | 0.7
100 kPa, x1 = 0.304 | 1.1 | 0.99 | 0.91 | 0.83 | 0.76 | 0.7
100 kPa, x1 = 0.3989 | 1.12 | 1.01 | 0.92 | 0.84 | 0.77 | 0.7
100 kPa, x1 = 0.508 | 1.16 | 1.05 | 0.95 | 0.86 | 0.79 | 0.72
100 kPa, x1 = 0.601 | 1.22 | 1.1 | 0.99 | 0.9 | 0.82 | 0.75
100 kPa, x1 = 0.7087 | 1.31 | 1.18 | 1.06 | 0.96 | 0.87 | 0.79
100 kPa, x1 = 0.7984 | 1.4 | 1.26 | 1.12 | 1.02 | 0.92 | 0.83
100 kPa, x1 = 0.9032 | 1.56 | 1.38 | 1.23 | 1.11 | 0.99 | 0.9
101 kPa, x1 = 0.01998 | 1.104 | – | – | – | – | –
101 kPa, x1 = 0.0384 | 1.102 | – | – | – | – | –
101 kPa, x1 = 0.05967 | 1.098 | – | – | – | – | –
101 kPa, x1 = 0.1122 | 1.097 | – | – | – | – | –
101 kPa, x1 = 0.1523 | 1.089 | – | – | – | – | –
101 kPa, x1 = 0.2584 | 1.082 | – | – | – | – | –
101 kPa, x1 = 0.3059 | 1.105 | – | – | – | – | –
101 kPa, x1 = 0.5638 | 1.215 | – | – | – | – | –
101 kPa, x1 = 0.8074 | 1.427 | – | – | – | – | –

CCCC#N + CCCCO
viscosity [mPa·s], 101.33 kPa
Settings | x2 = 0.1001 | x2 = 0.1981 | x2 = 0.2994 | x2 = 0.3979 | x2 = 0.4953 | x2 = 0.5961 | x2 = 0.6981 | x2 = 0.7984 | x2 = 0.8991
298.15 K | 0.58 | 0.623 | 0.684 | 0.764 | 0.869 | 1.012 | 1.211 | 1.482 | 1.885
308.15 K | 0.515 | 0.547 | 0.596 | 0.66 | 0.741 | 0.852 | 1.003 | 1.208 | 1.506
318.15 K | 0.461 | 0.487 | 0.526 | 0.575 | 0.64 | 0.726 | 0.842 | 1.002 | 1.221

COc1ccccc1O + CS(C)=O
viscosity [mPa·s], 101 kPa
Settings | x2 = 0.2 | x2 = 0.3 | x2 = 0.4 | x2 = 0.5 | x2 = 0.6 | x2 = 0.7 | x2 = 0.8 | x2 = 0.9
298.15 K | 10.62 | 12.4 | 11.9 | 9.46 | 6.91 | 4.97 | 3.59 | 2.66
308.15 K | 6.47 | 7.54 | 7.38 | 6.23 | 4.81 | 3.67 | 2.83 | 2.12
318.15 K | 4.35 | 5.01 | 4.98 | 4.4 | 3.59 | 2.8 | 2.2 | 1.75

CCCCn1cc[n+](C)c1.O=S(=O)([N-]S(=O)(=O)C(F)(F)F)C(F)(F)F + CCCCn1cc[n+](C)c1.F[P-](F)(F)(F)(F)F
Settings | viscosity [mPa·s]
318.15 K, 100 kPa, x1 = 0.25 | 58.45

Brc1ccccc1 + Cc1cccc(C)c1
101 kPa
Settings | viscosity [mPa·s]
293.15 K, x1 = 0.112 | 0.626
293.15 K, x1 = 0.2214 | 0.677
293.15 K, x1 = 0.3339 | 0.723
293.15 K, x1 = 0.5406 | 0.818
293.15 K, x1 = 0.6754 | 0.89
293.15 K, x1 = 0.7672 | 0.936
293.15 K, x1 = 0.848 | 0.978
293.15 K, x1 = 0.9095 | 1.01
298.15 K, x1 = 0.11 | 0.592
298.15 K, x1 = 0.2179 | 0.635
298.15 K, x1 = 0.3324 | 0.685
298.15 K, x1 = 0.4083 | 0.715
298.15 K, x1 = 0.5319 | 0.768
298.15 K, x1 = 0.6412 | 0.819
298.15 K, x1 = 0.7163 | 0.853
298.15 K, x1 = 0.866 | 0.927
303.15 K, x1 = 0.1106 | 0.555
303.15 K, x1 = 0.2212 | 0.592
303.15 K, x1 = 0.3352 | 0.639
303.15 K, x1 = 0.414 | 0.67
303.15 K, x1 = 0.5251 | 0.712
303.15 K, x1 = 0.6553 | 0.767
303.15 K, x1 = 0.765 | 0.815
303.15 K, x1 = 0.8807 | 0.866

COc1ccccc1O + c1ccccc1
303.15 K, 101 kPa
Settings | viscosity [mPa·s]
x2 = 0.1 | 3.4
x2 = 0.2 | 2.49
x2 = 0.3 | 1.97
x2 = 0.4 | 1.57
x2 = 0.5 | 1.29
x2 = 0.6 | 1.04
x2 = 0.7 | 0.873
x2 = 0.8 | 0.742
x2 = 0.9 | 0.641

Ic1ccccc1 + CCCCCO
293.15 K, 101.33 kPa
Settings | viscosity [mPa·s]
x2 = 0.1 | 1.665
x2 = 0.2 | 1.694
x2 = 0.25 | 1.709
x2 = 0.3834 | 1.864
x2 = 0.4289 | 1.94
x2 = 0.5101 | 2.098
x2 = 0.7761 | 2.915
x2 = 0.8055 | 3.043
x2 = 0.8184 | 3.1
x2 = 0.8554 | 3.273
x2 = 0.9419 | 3.7
x2 = 0.975 | 3.867

CCC(C)Cl (configuration not stated) + C1CCOC1
298.15 K, 101 kPa
Settings | viscosity [mPa·s]
x2 = 0.0544 | 0.3967
x2 = 0.111 | 0.3999
x2 = 0.2078 | 0.4057
x2 = 0.2947 | 0.411
x2 = 0.3996 | 0.4176
x2 = 0.5075 | 0.4246
x2 = 0.6041 | 0.4313
x2 = 0.7055 | 0.4387
x2 = 0.8076 | 0.4469
x2 = 0.9065 | 0.4551
x2 = 0.9544 | 0.4592

OCC(F)(F)F + O=C1CCCN1
viscosity [mPa·s], 101 kPa
Settings | x1 = 0.3 | x1 = 0.4 | x1 = 0.5 | x1 = 0.6 | x1 = 0.7 | x1 = 0.8 | x1 = 0.9
293.15 K | 9.082 | 6.392 | 4.918 | 3.907 | 3.208 | 2.768 | 2.477
303.15 K | 6.16 | 4.724 | 3.801 | 3.071 | 2.519 | 2.146 | 1.882
313.15 K | 4.448 | 3.625 | 3.008 | 2.458 | 2.015 | 1.705 | 1.478
323.15 K | 3.389 | 2.875 | 2.431 | 1.999 | 1.64 | 1.384 | 1.194
